In patent US20060293395A1, “Methods for treating a mammal before, during and after cardiac arrest” (priority 2004, published 2006):
“Also recorded” adds a separate entry of the source.

Tests used:
male domestic pigs = assay: Example 3: dobutamine vs levosimendan in the porcine model of cardiac arrest and cardiac resuscitation; format: in vivo, pig
Method: Experimental Preparation: The experiments were performed in the porcine model of cardiac arrest and cardiac resuscitation which has been extensively exercised. (21,22). […] Anesthesia was initiated by intramuscular injection of ketamine (20 mg kg^−1) and was completed by ear vein injection of sodium pentobarbital (30 mg kg^−1). Additional 8 mg kg^−1 doses of sodium pentobarbital were injected to maintain anesthesia at intervals of one hour. A cuffed endotracheal tube was advanced into the trachea. Animals were mechanically ventilated with a volume of 15 mL kg^−1, peak airway flow of 40 L min^−1, and FiO2 of 0.2 with the aid of a volume-controlled ventilator (Model MA-1, Puritan-Bennett, Carlsbad, Calif.). End-tidal PCO2 (PETCO2) was monitored with an infrared analyzer (Model 01R-7101A, Nihon Kohden Corp, Tokyo, Japan). Respiratory frequency was adjusted to maintain PETCO2 between 35 and 40 mmHg. Blood temperature was maintained at 37±0.5° C. with the aid of infrared heating lamps, as required.
For the measurement of left ventricular functions, a 5.5/7.5 MHz biplane with pulse-wave Doppler transesophageal echocardiographic tranducer with 4-way flexure (Model 21363A, Hewlett-Packard Co. Medical Products Group, Andover, Mass.) was advanced from the incisor teeth into the esophagus for a distance of approximately 40 cm. For the measurement of aortic pressure, a fluid filled catheter was advanced from the surgically exposed left femoral artery into the thoracic aorta. For measurements of right atrial and pulmonary arterial pressures, blood temperature and cardiac output, a 7-French, pentalumen, thermodilution-tipped catheter was advanced from the surgically exposed left femoral vein and flow-directed into the pulmonary artery. For inducing VF, a 5-French pacing catheter (EP Techologies, Inc., Mountain View, Calif.) was advanced from the surgically exposed right cephalic vein into the right ventricle. […] This catheter was then looped laterally and advanced inferiorly for a distance of 5 cm into the great cardiac vein for sampling of coronary venous blood. The electrocardiographic (EKG) lead II was continuously recorded.
Experimental procedure: A total 15 animals were investigated. […] Cardiac arrest was induced with 1 to 2 mA AC delivered to the endocardium of the right ventricle. Mechanical ventilation was discontinued after onset of VF. At the end of a 7-minute interval of untreated VF, precordial compression (PC) was started with a pneumatic piston-driven chest compressor (Thumper, Model 1000, Michigan Instruments, Grand Rapids, Mich.). Coincident with the start of PC, the animal was mechanically ventilated with a tidal volume of […] and FiO2 of 1.0. […] The compression force was adjusted to decrease the anterior-posterior diameter of the chest by 25%. After 5 minutes of PC, defibrillation was attempted with a 150 J biphasic waveform shock delivered between the right infraclavicular area and the cardiac apex. If an organized cardiac rhythm with mean aortic pressure of more than 60 mm Hg persisted for an interval of 5 minutes or more, the animal was regarded as successfully resuscitated. At 10 minutes after restoration of spontaneous circulation (ROSC), one of the three interventions was begun. […] Levosimendan diluted in physiological salt solution was administered in a loading dose of 20 μg kg^−1, infused over 10 minutes, followed by infusion of 0.4 μg kg^−1 min^−1 also in physiologic salt solution for a total duration of 230 minutes.

Male Sprague-Dawley rats = assay: Example 4: levosimendan bolus during cardiopulmonary resuscitation (VF cardiac arrest); format: in vivo, rat; conditions: for ETCO2 / Negative dP/dt / left ventricular diastolic pressure: post-resuscitation (FIG. 23)
Method: No anesthetic agents were initially administrated 30 min prior to inducing cardiac arrest. […] Right atrial pressure was measured with a high-sensitivity pressure transducer (model 42584-01; Abbott Critical Care System, North Chicago, Ill.). […] Blood temperature was measured with this sensor. […] Duplicate thermodilution curves were obtained and recorded with the aid of a cardiac output computer (CO-100; Institute of Critical Care Medicine, Palm Springs, Calif.). A PE 50 catheter was advanced through the left femoral artery into the thoracic aorta for sampling arterial blood for analysis of blood gases and for the measurement of aortic pressure with a high-sensitivity pressure transducer (model 42584-01; Abbott Critical Care System). Systolic, diastolic, and the interpreted mean arterial pressure were continuously recorded. […] A 4F polyethylene catheter (model C-PMS-401J; Cook Critical Care, Bloomington, Ind.) was next advanced through the right external jugular vein into the right atrium for inducing VF. A precurved guide wire, supplied with the catheter, was then advanced through the catheter into the right ventricle until an endocardial electrogram was observed. […] Current flow was then reduced to one half and continued for 3 min such as to prevent spontaneous defibrillation. VF was untreated for six min. […] Precordial compressions were performed with a pneumatically driven mechanical chest compressor. These procedures were previously described in greater detail (Von Planta I, supra) and are well-known to those of ordinary skill in the art (see e.g. Tang W, Weil M H, Sun S, Noc M, Yang L, Gazmuri R. Epinephrine increases the severity of postresuscitation myocardial dysfunction. Circulation 1995; 92: 3089-3093 and Sun S, Weil MH, Tang W, Povoas H, Mason E. Combined effect of buffer and adrenergic agent on postresuscitation myocardial function. Pharmacology 1999; 291 (2): 773-777).
Coincident with start of precordial compression, the animals were mechanically ventilated.

rats = assay: Example 1: feasibility studies and dose titration of levosimendan; format: in vivo, rat
[1] = 4-hour interval after treatment
[2] = 20 μg/kg bolus during VF, vs placebo
[3] = 4-hour interval following resuscitation, vs saline placebo (FIG. 22)
[4] = 12 μg levosimendan followed by 0.3 μg/kg/min, comparable to 3 μg/kg/min dobutamine

## C[C@@H]1CC(=O)NN=C1c1ccc(NN=C(C#N)C#N)cc1 [Levosimendan]
Male domestic pigs; [1]
  mean pulmonary artery pressure: Significantly lower
  right atrial (filling) pressure: Significantly lower
Male domestic pigs; among the three groups
  heart rate: did not differ
Male domestic pigs; at 24 hours
  neurological alertness scores: significantly better
Male domestic pigs; between levosimendan and dobutamine
  arterial pressure: no differences in arterial pressure
Male domestic pigs; in comparison to dobutamine (FIG. 19)
  coronary arterial-venous oxygen differences: numerically smaller
Male domestic pigs; in comparison to dobutamine, persisted at 72 hours (FIG. 17)
  EF: significantly greater
Male domestic pigs; in comparison to dobutamine, persisted at 72 hours (FIG. 18)
  FAC: significantly greater
Male domestic pigs; vs saline placebo (FIG. 16)
  cardiac output: Significantly greater cardiac output
Male Sprague-Dawley rats; [2]
  cumulative number of electrical shocks required for successful defibrillation: significantly less
  interval of CPR prior to successful resuscitation: significantly shorter
Male Sprague-Dawley rats; [3]
  MAP: Significantly greater; also recorded: increases
  cardiac index: Significantly greater; also recorded: increases
  dP/dt40: Significantly greater; also recorded: increases
Male Sprague-Dawley rats; levosimendan vs placebo controls, prior to/or after administration
  CPP: No differences
Male Sprague-Dawley rats; post-resuscitation
  ST segment elevation: lesser
Male Sprague-Dawley rats
  ETCO2: increases
  Negative dP/dt: increases
  left ventricular diastolic pressure: decreased
Male Sprague-Dawley rats; listed as levosimendan
  ETCO2: increased
  Negative dP/dt: increased
  left ventricular diastolic pressure: reduction
Male Sprague-Dawley rats; vs placebo
  duration of post-resuscitation survival: significantly increased
Male Sprague-Dawley rats; vs saline placebo (FIG. 24)
  peripheral arterial resistance (PAR): significantly decreased
rats; [4]
  arterial pressure: declines in arterial pressure
  cardiac output: increases in cardiac output
rats; higher doses of levosimendan
  arterial pressure: decreases in arterial pressure
  cardiac output: additional increases in cardiac output
  heart rate: increases in heart rate
